“And” between values parts separate entries of the source, which are not always exact repeats. Identical values can stand only once.

Data on 1 molecule can be found in paper PMC9986241 (Signal Transduction and Targeted Therapy, 2023).

In data set [1] the test system is SK-MEL-2, A375, SK-MEL-28, and HCT 116. In words: Combination index assay. The class given is cell-based, human. Particulars: erianin with vemurafenib; most of the CI; BRAF and RAS mutant cell lines. As for the experimental part:
(§1) The synergism and antagonism (CI value) were determined and analyzed using CompuSyn 1.0.
as §1

The test system of data set [2] is A375 (BRAF V600E) CDX. The data set is described as follows: Cell-derived xenograft (CDX). Particulars: 50 mg/kg, oral gavage. As for the experimental part:
(§2) Tumor volume (mm^3) = (length × width × height) × 0.52. SK-MEL-2: n = 10; A375 and SK-MEL-28: n = 8; HCT116: n = 9. b The photographs show tumors from CDX mice treated with vehicle, erianin, vemurafenib, or the combination. c The weight of the tumors was quantified and expressed as the treatment groups compared with the vehicle-treated group. […] The tissue lysates were prepared from CDX tumor tissues in each treatment group. […] Each point represents the IOD values of four quantified data from one mouse. Scale bars: 50 μm.
(§3) The animal experiments were performed according to the guidelines approved by the Zhengzhou University Institutional Animal Care and Use Committee. A375 cell line (1 × 10^7 cell/mouse), SK-MEL-28 cell line (5 × 10^6 cell/mouse), SK-MEL-2 cell (5 × 10^6 cell/mouse), and HCT116 cell line (1 × 10^7 cell/mouse) were injected subcutaneously into the NOD-SCID mice (Vital River Labs, Beijing, China). For the melanoma PDX mice model, the tumor was taken after surgical operation and implanted into the NPG (Vital River Labs, Beijing, China) mice under a sterile environment. For the colorectal cancer PDX mice model, NOD-SCID mice were selected as carriers for tumor growth. The measurement of tumor size was performed twice a week using vernier caliper and the calculation of tumor volume was done according to tumor volume (mm^3) = length × width × height × 0.52.

For data set [3], the system named is SK-MEL-28 (BRAF V600E) CDX. In words: Cell-derived xenograft (CDX). Particulars: 50 mg/kg, oral gavage. As for the experimental part: as §2, §3
Data set [4] has as its target active GST-MEK2 full length (Homo sapiens, UniProt P36507). In words: In vitro kinase assay (western blotting). In kind it is biochemical. Particulars: 12.5 to 50 nM, dose-dependent. As for the experimental part:
(§4) After incubated with 100–400 μM ATP in kinase assay buffer for 30 min, the phosphorylation of the substrate/total substrate protein was detected by western blotting. For ADP-glo kinase assay, unconsumed ATP was depleted with the addition of ADP-Glo™. Followed by kinase detection reagent to convert ADP to ATP, consumption of ATP was detected to evaluate the kinase activity. For more details, refer to the manufacturer’s instructions of ADP-Glo™ Kinase Assay.
On the technique in general: Immunoblotting shows a protein as a band on a membrane.

In data set [5] the target is active GST-MEK1 full length (Homo sapiens, UniProt Q02750). The data set is described as follows: In vitro kinase assay (western blotting). The class given is biochemical. The note with it: 12.5 to 50 nM, dose-dependent. As for the experimental part: as §4
Data set [6] concerns the target T1, active CRAF (306-end) (Homo sapiens, UniProt P04049, Y340E/Y341E).
T1 construct: purchased Signal Chem R01-13G
The data set is described as follows: In vitro kinase assay (western blotting). The class given is biochemical. Particulars: 12.5 to 50 nM, dose-dependent. The protocol: as §4

Data set [7] concerns HCT116 (KRAS mut) CDX. The data set is described as follows: Cell-derived xenograft (CDX). In kind it is in vivo, NOD-SCID mice. The note with it: 50 mg/kg, oral gavage. The protocol:
as §2, §3

Data set [8] relates to SK-MEL-2 (NRAS mut) CDX. The data set is described as follows: Cell-derived xenograft (CDX). In kind it is in vivo, NOD-SCID mice. The note with it: 50 mg/kg, oral gavage. As for the experimental part: as §2, §3
The target in data set [9] is T2, CRAF (Homo sapiens, UniProt P04049, Y340E/Y341E).
T2 construct: purchased Signal Chem R01-13G
In words: Luminescent ADP detection (ADP-glo kinase) assay. In kind it is biochemical. The note with it: 1–100 nM. As for the experimental part:
as §4

Data set [10] deals with MEK1 (Homo sapiens, UniProt Q02750). In words: Luminescent ADP detection (ADP-glo kinase) assay. In kind it is biochemical. Particulars: 1–100 nM. The protocol: as §4
In data set [11] the test system is SK-MEL-2 (NRAS mut). In words: Cell proliferation MTT assay. The note with it: Homo sapiens, SK-MEL-2, 72 h. The class given is cell-based. The protocol:
as §1
(§5) For cytotoxicity test, normal NHDF (5000 cells/well) and NHEM cell line (3000 cells/well) were planted into 96-well plates. For cell proliferation assay, A375 (1500 cells/well), SK-MEL-28 (3000 cells/well), SK-MEL-2 (4000 cells/well), and HCT116 (1500 cells/well) were planted into 96-well plates, determined concentration of drug was added after culture for 24 h. The viability of the cells was detected within 72 h using MTT solution (5 mg/mL). The absorbance at 570/490 nm was quantified by the use of the microplate reader.
(In general: Formazan colour is commonly taken as a measure of viable cells.)

Data set [12] relates to HCT116 (KRAS mut). In words: Cell proliferation MTT assay. In kind it is cell-based. Particulars: Homo sapiens, HCT-116, 72 h. As for the experimental part:
as §1, §5

Data set [13] deals with SK-MEL-28 (BRAF V600E). The data set is described as follows: Cell proliferation MTT assay. The class given is cell-based. Particulars: Homo sapiens, SK-MEL-28, 72 h. As for the experimental part:
as §1, §5

For data set [14], the system named is A375 (BRAF V600E). In words: Cell proliferation MTT assay. The class given is cell-based. Particulars: Homo sapiens, A-375, 72 h. As for the experimental part: as §1, §5
Data set [15] concerns the target MEK2 full length (Homo sapiens, UniProt P36507). In words: SPR. In kind it is binding. Particulars: CM5 chip, Biacore T200, read-out: equilibrium dissociation constant (KD). As for the experimental part:
(§6) 293 T cells were transfected with plasmids of pcDNA3.1-3×Flag-C-MAP2K1/MAP2K1 (K97A, M146A), MAP2K2/MAP2K1 (K101A, M150A), or CRAF/CRAF (K375A). […]
(§7) After incubation, a series concentration of erianin (RAF inhibitor LY3009120 and MEK inhibitor cobimetinib were simultaneously added as positive control) flowed through the protein-CM5 system. The binding was tested and analyzed using Biacore T200 instrument.
A general note: SPR reads the build-up and loss of mass on a sensor chip optically.

Data set [16] addresses MEK1 full length (Homo sapiens, UniProt Q02750). In words: SPR. In kind it is binding. The note with it: CM5 chip, Biacore T200, read-out: equilibrium dissociation constant (KD). The protocol: as §6, §7
The target of data set [17] is T3, CRAF (306-end) (Homo sapiens, UniProt P04049).
T3 construct: purchased
The data set is described as follows: SPR. The note with it: CM5 chip, Biacore T200, read-out: equilibrium dissociation constant (KD). In kind it is binding. As for the experimental part:
as §6, §7

For data set [18], the system named is SK-MEL-2, A375, SK-MEL-28, and HCT 116 cells. In words: MTT growth assay at 24, 48, or 72 h. The class given is cell-based, human. The note with it: both BRAF and RAS mutant cell lines. The protocol:
as §1, §5

Data set [19] has as its target T4, CRAF (Homo sapiens, UniProt P04049).
T4 construct: endogenous in cells; host or cells: A375
In words: Erianin-conjugated Sepharose 4B bead pull-down assay. The class given is binding. Particulars: in vitro and ex vivo (A375 cell lysate). The protocol: as §6
Cell lysate (500 μg) or recombinant proteins (200 ng) were incubated with erianin-CNBr activated sepharose 4B overnight at 4 °C, and the protein-beads complex was washed four times by the use of rotational incubator to remove non-specific binding. Western blotting was developed to check the pull-down bands.

Sequence of MEK1 full length (Q02750 whole entry): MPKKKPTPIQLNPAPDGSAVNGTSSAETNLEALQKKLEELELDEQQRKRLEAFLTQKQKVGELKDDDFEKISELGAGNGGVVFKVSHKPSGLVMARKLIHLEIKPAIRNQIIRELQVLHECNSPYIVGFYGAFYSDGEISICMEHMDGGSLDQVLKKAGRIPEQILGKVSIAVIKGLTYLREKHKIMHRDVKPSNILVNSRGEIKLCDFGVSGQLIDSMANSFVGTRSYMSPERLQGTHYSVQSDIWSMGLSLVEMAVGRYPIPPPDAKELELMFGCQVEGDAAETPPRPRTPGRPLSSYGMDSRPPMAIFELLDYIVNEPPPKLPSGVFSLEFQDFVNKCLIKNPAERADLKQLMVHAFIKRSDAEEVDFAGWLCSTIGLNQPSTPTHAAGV
Sequence of MEK1 (Q02750 whole entry): as above
Sequence of active GST-MEK1 full length (Q02750 whole entry): as above
Sequence of active GST-MEK2 full length (P36507 whole entry): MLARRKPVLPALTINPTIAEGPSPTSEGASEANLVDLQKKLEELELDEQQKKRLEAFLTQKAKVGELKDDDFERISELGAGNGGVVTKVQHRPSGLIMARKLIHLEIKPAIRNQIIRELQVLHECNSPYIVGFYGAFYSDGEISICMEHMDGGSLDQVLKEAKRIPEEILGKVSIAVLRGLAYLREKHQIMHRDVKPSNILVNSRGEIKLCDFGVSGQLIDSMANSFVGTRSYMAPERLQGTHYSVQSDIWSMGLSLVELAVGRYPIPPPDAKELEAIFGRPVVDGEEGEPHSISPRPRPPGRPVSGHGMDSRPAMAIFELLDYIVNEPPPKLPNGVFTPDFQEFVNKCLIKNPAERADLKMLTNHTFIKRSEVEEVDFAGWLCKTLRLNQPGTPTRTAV
Sequence of MEK2 full length (P36507 whole entry): as above

`COc1ccc(CCc2cc(OC)c(OC)c(OC)c2)cc1O` [Erianin]: the “combination index (CI)” value in data set [1] is at most 1. For the same molecule, the body weight result in [2] and in [3] was “no significant reduction” each time. For the same molecule, the tumor volume entry in data set [2] (vs vehicle-treated group) and in data set [3] (vs vehicle-treated group) was “significant decrease” each time. Also, the “MEK2 kinase activity (phosphorylation of ERK2)” value in data set [4] is recorded as “inhibited”. Besides, the “MEK1 kinase activity (phosphorylation of ERK1)” value in [5] is recorded as “inhibited”. The “CRAF kinase activity (phosphorylation of MEK1)” value in data set [6] is on record as “inhibited”. In addition, the “tumor volume and tumor weight” value was “inhibited tumor volume and tumor weight significantly” in data set [7]; “inhibited tumor volume and tumor weight significantly” in [8]. Moreover, the “kinase activity (luminescence signal)” value in [9] and in [10] was “inhibited the kinase activity” in each case. For the same molecule, the IC50 (as a rule, the midpoint of a concentration-inhibition curve) in [11] amounted to 0.0597 ± 0.0072 µM; in data set [12], 0.0206 ± 0.0022 µM; in data set [13] it was 0.0506 ± 0.0017 µM; in [14] it was 0.012 ± 0.0009 µM. Besides, the Kd (commonly the constant that tells how readily two partners part at equilibrium) was 115 µM in [15]; 68.5 µM in data set [16]; 89.6 µM and 89.7 µM in data set [17]. Further, in data set [18], the proliferation result was “markedly suppress”. The binding in pull-down result in data set [19] is listed as “directly bound”.
